Measurements: ChEMBL document CHEMBL1136291, “Synthesis of C-8 methanesulphonate substituted pyrrolobenzodiazepines as potential antitumour agents” (2003)
Blank lines part the entries; values can stand above or below the compound they belong to.

Legend:
[1] = tested on: NCI-H23; assay: In vitro antitumor activity against human non-small cell lung NCI-H23 cell line
[2] = tested on: UO-31; assay: In vitro antitumor activity against human renal UO-31 cell line; type: functional
[3] = tested on: A498; assay: In vitro antitumor activity against human renal A498 cell line; type: functional
[4] = tested on: HCT-116; assay: In vitro antitumor activity against human Colon HCT116 cell line; type: functional
[5] = tested on: UACC-62; assay: In vitro antitumor activity against human melanoma UACC-62 cell line; type: functional
[6] = tested on: NCI/ADR-RES; assay: In vitro antitumor activity against human breast NCI/ADR-RES cell line; type: functional
[7] = tested on: CAKI-1; assay: In vitro antitumor activity against human renal CAKI-1 cell line; type: functional
[8] = tested on: U-251; assay: In vitro antitumor activity against human CNS U251 cell line; type: functional
[9] = tested on: MDA-MB-231; assay: In vitro antitumor activity against human breast MDA-MB-231/ATCC cell line; type: functional
[10] = tested on: NCI-H522; assay: In vitro antitumor activity against human non-small cell lung NCI-H522 cell line; type: functional
[11] = tested on: HCT-15; assay: In vitro antitumor activity against human Colon HCT-15 cell line; type: functional
[12] = tested on: LOX IMVI; assay: In vitro antitumor activity against human melanoma […] cell line; type: functional
[13] = tested on: TK-10; assay: In vitro antitumor activity against human renal TK-10 cell line; type: functional
[14] = tested on: NCI-H226; assay: In vitro antitumor activity against human non-small cell lung NCI-H226 cell line; type: functional
[15] = tested on: Malme-3M; assay: In vitro antitumor activity against human melanoma MALME-3M cell line; type: functional
[16] = tested on: 786-0; assay: In vitro antitumor activity against human renal 786-0 cell line; type: functional
[17] = tested on: SK-MEL-5; assay: In vitro antitumor activity against human melanoma SK-MEL-5 cell line; type: functional
[18] = tested on: OVCAR-3; assay: In vitro antitumor activity against human ovarian OVCAR-3 cell line; type: functional
[19] = tested on: UACC-257; assay: In vitro antitumor activity against human melanoma UACC-257 cell line; type: functional
[20] = tested on: SR; assay: In vitro antitumor activity against human leukemia SR cell line; type: functional
[21] = tested on: RPMI-8226; assay: In vitro antitumor activity against human leukemia RPMI-8226 cell line; type: functional
[22] = tested on: M14; assay: In vitro antitumor activity against human melanoma M14 cell line; type: functional
[23] = tested on: CCRF-CEM; assay: In vitro antitumor activity against human leukemia CCRF-CEM cell line; type: functional
[24] = tested on: SW-620; assay: In vitro antitumor activity against human Colon SW-620 cell line; type: functional
[25] = tested on: SF-539; assay: In vitro antitumor activity against human CNS SF-539 cell line; type: functional
[26] = tested on: ACHN; assay: In vitro antitumor activity against human renal ACHN cell line; type: functional
[27] = tested on: SNB-75; assay: In vitro antitumor activity against human CNS SNB-75 cell line; type: functional
[28] = tested on: OVCAR-4; assay: In vitro antitumor activity against human ovarian OVCAR-4 cell line; type: functional

GI50 [1]: 12.2 µM | GI50 [4]: 18.5 µM | GI50 [8]: 17.1 µM | GI50 [9]: 16.5 µM | GI50 [10]: 10.9 µM | GI50 [11]: 16.5 µM | GI50 [14]: 15.4 µM | GI50 [16]: 17 µM | GI50 [17]: 16.9 µM | GI50 [18]: 16.3 µM | GI50 [21]: 12.2 µM | GI50 [23]: 14.5 µM | GI50 [24]: 14.6 µM | GI50 [26]: 16 µM
SMILES: COc1cc2c(cc1OCCOS(C)(=O)=O)N=C[C@@H]1CCCN1C2=O
GI50 [2]: 15.2 µM | GI50 [3]: 17.1 µM | GI50 [5]: 19.4 µM | GI50 [6]: 13.5 µM | GI50 [7]: 17.7 µM | GI50 [12]: 15.7 µM | GI50 [13]: 18.1 µM | GI50 [15]: 13.6 µM | GI50 [19]: 18.2 µM | GI50 [20]: 11.1 µM | GI50 [22]: 18.7 µM | GI50 [25]: 18.6 µM

GI50 [23]: 52.8 µM | GI50 [28]: 70.3 µM
SMILES: COc1cc2c(cc1OCCCOS(C)(=O)=O)N=C[C@@H]1CCCN1C2=O
GI50 [27]: 94.7 µM | GI50 [20]: 62.9 µM
